Experimental data from paper PMC3259201 (European Journal of Medicinal Chemistry, 2011).
Entries after “also recorded” stand apart in the source; their conditions may differ.

test system: HIV-1 NL4-3 strain; test: HIV-1 infectivity assay, single cycle infection of TZM-bl cells; type: cell-based; details: wild-type HIV-1 NL4-3 strain

Row | SMILES | anti-HIV activity (in words)
1 | COc1cccc2c(=O)c3c(OC)cc4c(c3oc12)[C@@H](OC(=O)[C@@]12CCC(C)(C(=O)O1)C2(C)C)[C@@H](OC(=O)[C@@]12CCC(C)(C(=O)O1)C2(C)C)C(C)(C)O4 [Compound 14, 1R,2R-(-)-Dicamphanoyl-3,3-dimethyl-6,11-dimethoxy-1,2-dihydropyrano[2,3-c]xanthen-7(1H)-one] | no detectable anti-HIV activity or selectivity
2 | CC1(C)Oc2cc(O)c3c(=O)c4ccccc4oc3c2[C@@H](OC(=O)[C@@]23CCC(C)(C(=O)O2)C3(C)C)[C@H]1OC(=O)[C@@]12CCC(C)(C(=O)O1)C2(C)C [Compound 9, 1R,2R-(-)-Dicamphanoyl-3,3-dimethyl-6-hydroxy-1,2-dihydropyrano[2,3-c]xanthen-7(1H)-one] | did not show notable activity or selectivity; also recorded: did not exhibit anti-HIV activity
3 | COc1cc2c(c3oc4c(C)cccc4c(=O)c13)[C@@H](OC(=O)C13CCC(C)(C(=O)O1)C3(C)C)[C@@H](OC(=O)C13CCC(C)(C(=O)O1)C3(C)C)C(C)(C)O2 (stereo partly drawn) [Compound 10, 1R,2R-(-)-Dicamphanoyl-3,3,11-trimethyl-6-methoxy-1,2-dihydropyrano[2,3-c]xanthen-7(1H)-one] | almost inactive
